Measurements taken from ChEMBL document CHEMBL1143546, “Novel heterocyclic glucocorticoids: in vitro profile and in vivo efficacy” (Bioorg Med Chem Lett, 2005).

Tests used:
Glucocorticoid receptor [1] = target: T1, Glucocorticoid receptor (Mus musculus, UniProt P06537); assay: GR-mediated transrepression of IL-6 in peritoneal exudate cells harvested from C57BI/6 mice; assay type: cell-based
T1 sequence (P06537 whole entry): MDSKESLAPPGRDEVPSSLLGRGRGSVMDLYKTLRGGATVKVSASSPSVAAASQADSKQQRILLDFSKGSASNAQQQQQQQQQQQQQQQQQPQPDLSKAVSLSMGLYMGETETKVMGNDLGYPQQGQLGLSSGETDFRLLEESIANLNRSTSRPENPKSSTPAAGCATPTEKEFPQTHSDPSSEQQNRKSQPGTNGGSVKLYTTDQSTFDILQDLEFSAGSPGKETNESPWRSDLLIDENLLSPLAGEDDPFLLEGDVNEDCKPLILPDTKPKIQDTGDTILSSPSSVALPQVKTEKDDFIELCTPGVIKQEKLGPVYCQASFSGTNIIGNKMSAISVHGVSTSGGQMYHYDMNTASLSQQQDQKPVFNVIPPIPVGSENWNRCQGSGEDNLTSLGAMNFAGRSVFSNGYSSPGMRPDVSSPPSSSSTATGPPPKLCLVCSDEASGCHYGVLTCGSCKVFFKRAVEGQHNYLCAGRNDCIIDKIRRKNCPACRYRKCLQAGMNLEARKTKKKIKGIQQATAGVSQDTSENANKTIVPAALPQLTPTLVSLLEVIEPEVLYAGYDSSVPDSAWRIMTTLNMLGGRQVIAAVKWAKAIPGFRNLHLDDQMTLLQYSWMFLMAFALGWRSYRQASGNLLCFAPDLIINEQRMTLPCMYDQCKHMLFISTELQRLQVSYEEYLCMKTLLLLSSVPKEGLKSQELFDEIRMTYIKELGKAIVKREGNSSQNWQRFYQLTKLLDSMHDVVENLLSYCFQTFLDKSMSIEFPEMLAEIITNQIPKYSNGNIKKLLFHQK

Glucocorticoid receptor [2] = target: T2, Glucocorticoid receptor (Homo sapiens, UniProt P04150); assay: Inhibition of GR-mediated tyrosine amino transferase activity in human HepG2 cells; assay type: cell-based
T2 sequence (P04150 whole entry): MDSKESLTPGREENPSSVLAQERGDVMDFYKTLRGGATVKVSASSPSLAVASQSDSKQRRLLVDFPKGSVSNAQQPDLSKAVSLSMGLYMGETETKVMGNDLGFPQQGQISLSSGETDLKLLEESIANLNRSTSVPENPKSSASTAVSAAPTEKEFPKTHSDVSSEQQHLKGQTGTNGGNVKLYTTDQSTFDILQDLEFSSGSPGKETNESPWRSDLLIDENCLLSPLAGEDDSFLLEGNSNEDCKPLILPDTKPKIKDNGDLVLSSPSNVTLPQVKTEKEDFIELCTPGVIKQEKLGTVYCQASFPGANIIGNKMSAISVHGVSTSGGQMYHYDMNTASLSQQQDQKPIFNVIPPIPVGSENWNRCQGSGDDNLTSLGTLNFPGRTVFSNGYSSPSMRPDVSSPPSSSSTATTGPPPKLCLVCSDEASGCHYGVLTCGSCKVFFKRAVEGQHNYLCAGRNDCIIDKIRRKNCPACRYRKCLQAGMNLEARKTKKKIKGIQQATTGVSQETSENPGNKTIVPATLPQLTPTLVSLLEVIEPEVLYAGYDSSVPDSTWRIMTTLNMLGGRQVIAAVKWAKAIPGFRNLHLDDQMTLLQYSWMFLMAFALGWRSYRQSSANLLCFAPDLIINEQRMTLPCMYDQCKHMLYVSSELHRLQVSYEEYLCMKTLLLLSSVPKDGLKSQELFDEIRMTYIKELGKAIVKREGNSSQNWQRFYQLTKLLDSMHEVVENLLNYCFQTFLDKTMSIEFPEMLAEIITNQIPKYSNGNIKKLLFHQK

Glucocorticoid receptor [3] = target: T1, Glucocorticoid receptor; assay: Inhibition of mouse glutamine synthetase by GR-mediated transactivation in C2C12 cells; assay type: cell-based
Glucocorticoid receptor [4] = target: T2, Glucocorticoid receptor; assay: GR-mediated transrepression of IL-6 in human A549 lung carcinoma cells; assay type: functional, cell-based
Glucocorticoid receptor [5] = target: T2, Glucocorticoid receptor; assay: Inhibition of human glucocorticoid receptor alpha by displacement of [3H]dexamethasone
[6] = target: T3, Glucocorticoid receptor (Mus musculus) (UniProt P06537); assay: Percent absolute inhibition of LPS-induced tumor necrosis factor alpha release in mice at 3 mg/kg dose; assay type: organism-based; design: dose 3 mg/kg
T3 sequence (whole entry): T1 sequence (P06537 whole entry)

[7] = target: T3, Glucocorticoid receptor (Mus musculus); assay: Percent inhibition of LPS-induced tumor necrosis factor alpha release in mice relative to prednisolone at 3 mg/kg dose; assay type: organism-based; design: dose 3 mg/kg

Row | Structure (SMILES) | EC50 (Glucocorticoid receptor [1]) [nM] | EC50 (Glucocorticoid receptor [2]) [nM] | EC50 (Glucocorticoid receptor [3]) [nM] | EC50 (Glucocorticoid receptor [4]) [nM] | IC50 (Glucocorticoid receptor [5]) [nM] | inhibition [6] [%] | inhibition [7] [%]
1 | COc1cc([C@H](O)[C@H]2CCCC3=Cc4c(cnn4-c4ccc(F)cc4)C[C@@]32C)cc(F)c1F | 15 |  |  |  |  |  | 
2 | C[C@]12Cc3cnn(-c4ccc(F)cc4)c3C=C1CCC[C@@H]2[C@@H](O)c1ccc(Cl)s1 | 17 | 1070 | 34 | 13 | 7.6 |  | 
3 | C[C@]12Cc3cnn(-c4ccc(F)cc4)c3C=C1CCC[C@@H]2[C@@H](O)c1ccoc1 | 45 |  |  | 2.7 | 2.9 |  | 
4 | C[C@]12Cc3cnn(-c4ccc(F)cc4)c3C=C1CCC[C@@H]2[C@H](O)c1ccc(F)nc1 | 5 | 4440 | 23 | 21 | 9.1 |  | 
5 | C[C@]12Cc3cnn(-c4ccc(F)cc4)c3C=C1CCC[C@@H]2[C@@H](O)c1cc(Cl)sc1Cl | 120 |  |  | 31 | 10.2 |  | 
6 | C[C@]12Cc3cnn(-c4ccc(F)cc4)c3C=C1CCC[C@@H]2[C@H](O)c1csc2ccccc12 | 11 | 356 | 3 | 6 | 1.5 |  | 
7 | C[C@]12Cc3cnn(-c4ccc(F)cc4)c3C=C1CCC[C@@H]2[C@@H](O)c1cc2ccccc2s1 |  |  | 1210 | 19 |  |  | 
8 | C[C@]12Cc3cnn(-c4ccc(F)cc4)c3C=C1CCC[C@@H]2[C@@H](O)c1cccs1 | 21 |  |  | 37 | 7.1 |  | 
9 | C[C@]12Cc3cnn(-c4ccc(F)cc4)c3C=C1CCC[C@@H]2[C@@H](O)Cc1ccc(F)cc1 | 3.7 |  | 17 |  | 4.6 |  | 
10 | C[C@]12Cc3cnn(-c4ccc(F)cc4)c3C=C1CCC[C@@H]2[C@](C)(O)c1ccsc1 | 5.2 |  | 8.3 | 0.96 |  |  | 
11 | C[C@]12C=CC(=O)C=C1CC[C@@H]1[C@@H]2[C@@H](O)C[C@@]2(C)[C@H]1CC[C@]2(O)C(=O)CO [PREDNISOLONE] | 5.7 |  |  |  |  | 71 | 100
12 | C[C@]12Cc3cnn(-c4ccc(F)cc4)c3C=C1CCC[C@@H]2[C@@H](O)c1ccc(F)nc1 | 12 |  | 260 | 13 | 13.6 |  | 
13 | C[C@]12Cc3cnn(-c4ccc(F)cc4)c3C=C1CCC[C@@H]2[C@@H](O)c1csc2ccccc12 | 54 |  |  | 18 | 5.1 |  | 
14 | C[C@]12Cc3cnn(-c4ccc(F)cc4)c3C=C1CCC[C@@H]2[C@@H](O)c1ccncc1 | 215 |  |  | 38 | 23.2 |  | 
